Results reported in ChEMBL document CHEMBL4673289, “Design, synthesis and biological evaluation of imidazolopyridone derivatives as novel BRD4 inhibitors” (Bioorg Med Chem, 2021).
Activity calls are given as the source filed them. No cut-off for these calls is given here.

Key:
[1] = molecular target: T1, Bromodomain-containing protein 4 (Homo sapiens, UniProt O60885); test: Inhibition of BRD4 (unknown origin) at 1 uM preincubated for 15 mins followed by substrate addition and measured after 1 hr by AlphaScreen assay relative to control; settings: time 75.0 min
[2] = molecular target: T1, Bromodomain-containing protein 4; test: Inhibition of BRD4 (unknown origin) preincubated for 15 mins followed by substrate addition and measured after 1 hr by AlphaScreen assay relative to control
BXPC-3 [3] = test: Induction of morphological changes in human BXPC-3 cells assessed as assessed as increase in apoptotic cells at 8 uM measured after 48 hrs by light microscopic analysis; format: functional, cell-based
BXPC-3 [4] = test: Inhibition of c-Myc protein expression in human BXPC-3 cells at 4 to 16 uM measured after 48 hrs by Western blot analysis; format: functional, cell-based; settings: dose 4-16 µM
BXPC-3 [5] = test: Cell cycle arrest in human BXPC-3 cells assessed as accumulation at sub-G1 phase at 8 to 16 uM measured after 48 hrs by AnnexinV-FITC/propidium iodide staining based flow cytometry; format: functional; settings: dose 8-16 µM
BXPC-3 [6] = test: Induction of apoptosis in human BXPC-3 cells assessed as upregulation of Bax at 4 to 16 uM measured after 48 hrs by Western blot analysis; format: functional, cell-based; settings: dose 4-16 µM
BXPC-3 [7] = test: Induction of apoptosis in human BXPC-3 cells assessed as upregulation of caspase 3 at 4 to 16 uM measured after 48 hrs by Western blot analysis; format: functional, cell-based; settings: dose 4-16 µM
BXPC-3 [8] = test: Induction of apoptosis in human BXPC-3 cells assessed as early apoptotic cells at 4 uM measured after 48 hrs by AnnexinV/propidium iodide staining based flow cytometry (reference value: 1.02 %); format: functional
BXPC-3 [9] = test: Induction of apoptosis in human BXPC-3 cells assessed as late apoptotic cells at 8 uM measured after 48 hrs by AnnexinV/propidium iodide staining based flow cytometry (reference value: 5.15 %); format: functional
Mus musculus [10] = test: Upregulation of caspase 3 in BALB/c mouse allografted with mouse Panc02 cells […] at 50 mg/kg, ip administered every day measured after 20 days by immunohistochemical analysis; format: functional, organism-based; settings: time 20.0 day
Mus musculus [11] = test: Upregulation of caspase 3 in BALB/c mouse allografted with mouse Panc02 cells […] at 50 mg/kg, ip administered every day in combination with gemcitabine at 100 mg/kg measured after 20 days by immunohistochemical analysis; format: functional, organism-based; settings: time 20.0 day
Panc02 [12] = test: Induction of apoptosis in mouse Panc02 cells allografted in BALB/c mouse assessed as condensed chromatin at 50 mg/kg, ip administered every day measured after 20 days by hematoxylin and eosin staining based assay; format: functional, organism-based; settings: time 20.0 day
Panc02 [13] = test: Induction of apoptosis in mouse Panc02 cells allografted in BALB/c mouse assessed as condensed chromatin at 50 mg/kg, ip administered every day in combination with gemcitabine at 100 mg/kg measured after 20 days by hematoxylin and eosin staining based assay; format: functional, organism-based; settings: time 20.0 day

Compound: CCS(=O)(=O)Nc1ccc(Oc2ccccc2F)c(-c2cn(C)c(=O)c3cncn23)c1
- inhibition [1]: 100%
- IC50 [2]: 35 nM
- Activity (BXPC-3 [3]): Active
- inhibition (BXPC-3 [4]): Active
- Activity (BXPC-3 [5]): Active
- Activity (BXPC-3 [6]): Active
- Activity (BXPC-3 [7]): Active
- Activity (BXPC-3 [8]): 1.46%
- Activity (BXPC-3 [9]): 12.36%
- Activity (Mus musculus [10]): Active
- Activity (Mus musculus [11]): Active
- Activity (Panc02 [12]): Active
- Activity (Panc02 [13]): Active
